Data as given in patent publication US9763444B2, “Compositions and methods for repelling blood-sucking and biting insects, ticks and mites” (The United States of America, as represented by the …, priority 2013, dated 2017).

Legend:
Ae. aegypti [1] = experiment: Minimum Effective Dosage (MED) test on treated cloth, mosquito repellency; format: in vivo, Aedes aegypti; details: for Ae. aegypti Minimum Effective Dosage, F1: human subject F1; for Ae. aegypti Minimum Effective Dosage, M1: human subject M1; for Ae. aegypti Minimum Effective Dosage, M2: human subject M2; for mosquito repellent activity against Ae. aegypti (in words): MED test on treated cloth
Experimental: Bioassay for mosquito repellent activity: Repellency screening test for experimental chemicals were carried out to identify candidates that might be useful repellents. The repellent efficacy was compared to that of the standard repellent, DEET. Experimental compounds were assessed in one of two ways: (1) a range of concentration was evaluated to determine the minimum effective dosage (MED) which was the concentration threshold of where the repellent began to fail and allowed bites, or (2) a predetermined concentration of each repellent was applied to cloth and the activity was evaluated over several days (or in some cases months) (Katritzky, A. R., et al., Proc. Nat. Acad. Sci. (US), 105, 7359-7364 (2008); Katritzky, A. R., et al., Journal of Med. Entomol., 47: 924-938 (2010)). When conducting assays for repellency, a failure point was also predetermined for those measurements. Since experiments described herein used about 500 female mosquitoes per test, the failure point was set at 1% (equal to 5 bites) received during a test interval. From 3 to 5 volunteers participated in the screening of each set of chemicals.
Minimum Effective Dosage (MED) Test: The MED bioassays on treated cloth were a method of screening to determine the minimum amount of a repellent needed to prevent bites. Experimental compounds were prepared in solution by combining 0.15 g of experimental chemical with 2 mL of acetone in a 7.1 mL screwtop glass vial. This solution was then serially diluted to obtain nine concentrations when applied on to the cloth patch: 1.5, 0.75, 0.375, 0.187, 0.094, 0.047, 0.023, 0.011, and 0.006 mg/cm^2. The standard N,N-diethyl-3-methylbenzamide (DEET) was also tested at the same concentration levels to serve as a control and a comparison for relative repellency. A 50 cm^2 (5 cm×10 cm) patch of muslin cloth was rolled lengthwise and placed into each of the glass vials and scaled with a screwtop so it soaked up the solution. Just prior to the experiment, the pieces of treated cloth were removed from the vials, affixed to card stock tabs (5 cm×3 cm) with staples, and hung with masking tape on a rack to dry and allow acetone to evaporate. Volunteers wore a latex glove over their hands, a nylon stocking over their arm, and then wrapped a plastic Velcro-sealed sleeve over their entire forearm with a 32 cm^2 (4 cm×8 cm) window cut-out to allow mosquitoes to bite through. The nylon stocking acted as a barrier between the dried cloth and the skin, an additional precaution with experimental compounds. Dried cloth patches were stretched across the window in the plastic sleeve and held in place with masking tape. Volunteers placed their sleeve-covered arms into a screened cage for a one minute period with approximately 500 female Ae. aegypti mosquitoes that had been preselected for host-seeking behavior using a draw box (Posey, K. H., and C. E. Schreck, Mosquito News, 41: 566-568 (1981)). […] The MED recorded was the lowest passing concentration level tested for the experimental compound. […] All human volunteers in the study provided informed consent to participate of a protocol approved by the University of Florida Human Use Institutional Review Board (IRB #636-2005).

Ae. aegypti [2] = experiment: Complete Protection Time test on treated cloth (duration of protection); format: in vivo, Aedes aegypti; details: Dosage 0.75 mg/cm^2 on cloth
Experimental: Bioassay for mosquito repellent activity: Repellency screening test for experimental chemicals were carried out to identify candidates that might be useful repellents. The repellent efficacy was compared to that of the standard repellent, DEET. Experimental compounds were assessed in one of two ways: (1) a range of concentration was evaluated to determine the minimum effective dosage (MED) which was the concentration threshold of where the repellent began to fail and allowed bites, or (2) a predetermined concentration of each repellent was applied to cloth and the activity was evaluated over several days (or in some cases months) (Katritzky, A. R., et al., Proc. Nat. Acad. Sci. (US), 105, 7359-7364 (2008); Katritzky, A. R., et al., Journal of Med. Entomol., 47: 924-938 (2010)). When conducting assays for repellency, a failure point was also predetermined for those measurements. Since experiments described herein used about 500 female mosquitoes per test, the failure point was set at 1% (equal to 5 bites) received during a test interval. From 3 to 5 volunteers participated in the screening of each set of chemicals. Complete Protection Time Test: Complete protection time (CPT) on treated cloth is a method of screening that is used to determine the repellent duration for experimental chemicals that have not been examined for safe use on humans. The standard repellent DEET was used as a positive control as a benchmark by which to compare the repellents. Experimental compounds were prepared in solution by combining 0.075 g of experimental chemical with 1 mL of acetone in a 7.1-mL screwtop glass vial. The same concentration level of DEET was also prepared in this way to serve as a control and a comparison for relative repellency. A 50 cm^2 (5 cm×10 cm) patch of muslin cloth was rolled lengthwise and placed into each of the glass vials and sealed with a screwtop so it soaked up the solution. Just prior to the experiment, the pieces of treated cloth were removed from the vials, affixed to card stock tabs (5 cm×3 cm) with staples, and hung with masking tape on a rack to dry and allowed the volatile acetone to evaporate. Similar to the MED tests, volunteers wore a latex glove over their hands, a nylon stocking over their arm, and then wrapped a plastic Velcro-sealed sleeve over their entire forearm with a 32 cm^2 (4 cm×8 cm) window cut-out to allow mosquitoes to bite through. Dried cloth patches were stretched across the window in the plastic sleeve and held in place with masking tape. Volunteers placed their sleeve-covered arms into a screened cage for a one minute period with approximately 500 female Ae. aegypti mosquitoes that had been preselected for host-seeking behavior using a draw box. A cloth patch that received a 1% bite through level, equal to 5 mosquitoes that bit out of 500 mosquitoes, was considered a failure at that concentration. If 0-4 bites were received, then the treated cloth was still considered to be repellent at that concentration. The duration was recorded as the number of days an experimental chemical received a passing result, with day 0 being the day the sample was first dried. […] As with the tests conducted to determine CPT, volunteers in the study provided informed consent (IRB protocol #636-2005). The protocol was approved by the University of Florida Human Use Institutional Review Board.

An. albimanus = experiment: Minimum Effective Dosage (MED) test on treated cloth, mosquito repellency; format: in vivo, Anopheles albimanus; details: Table 4, highest concentration 1.500 mg/cm^2
[3] = Table 2, highest concentration 1.500 mg/cm^2
[4] = Table 5, subject M4, highest dose 0.375 mg/cm2 (0.187 for 7)
[5] = Table 5, subject M5, highest dose 0.375 mg/cm2 (0.187 for 7)
[6] = Table 5, subject M8, highest dose 0.375 mg/cm2 (0.187 for 7)

SMILES: COC(=O)c1ccc(Cl)c2c1C=CC(C)(C)O2 [Compound 14, Methyl 8-chloro-2,2-dimethyl-2H-chromene-5-carboxylate]
- Ae. aegypti Minimum Effective Dosage, F1 (Ae. aegypti [1]; [3]): >1.500 mg/cm^2
- Ae. aegypti Minimum Effective Dosage, M1 (Ae. aegypti [1]; [3]): >1.500 mg/cm^2
- Ae. aegypti Minimum Effective Dosage, M2 (Ae. aegypti [1]; [3]): >1.500 mg/cm^2

SMILES: COC(=O)c1ccc2c(c1)OC(C)(C)C=C2 [Compound 8]
- mosquito repellent activity against Ae. aegypti (in words) (Ae. aegypti [1]): ineffective
- Ae. aegypti Minimum Effective Dosage, M4 (Ae. aegypti [1]; [4]): >0.375 mg/cm^2
- Ae. aegypti Minimum Effective Dosage, M5 (Ae. aegypti [1]; [5]): >0.375 mg/cm^2
- Ae. aegypti Minimum Effective Dosage, M8 (Ae. aegypti [1]; [6]): >0.375 mg/cm^2

SMILES: CC1(C)C=Cc2ccc(Cl)cc2O1 [Compound 12]
- Ae. aegypti Minimum Effective Dosage, F1 (Ae. aegypti [1]; [3]): 0.750 mg/cm^2
- Ae. aegypti Minimum Effective Dosage, M1 (Ae. aegypti [1]; [3]): 0.750 mg/cm^2
- Ae. aegypti Minimum Effective Dosage, M2 (Ae. aegypti [1]; [3]): 0.750 mg/cm^2
- Ae. aegypti Minimum Effective Dosage, Average (Ae. aegypti [1]; Table 2, mean of 3 volunteers): 0.750 mg/cm^2

SMILES: CC1(C)C=Cc2cc(Cl)ccc2O1 [Compound 17]
- Duration of protection, Proportion to DEET (Ae. aegypti [2]): 0.50
- Duration of protection against Ae. aegypti, M-3 Days Protection (Ae. aegypti [2]; subject M-3): 1 days

SMILES: CC1(C)C=Cc2cc(CO)ccc2O1 [Compound 7]
- mosquito repellent activity against Ae. aegypti (in words) (Ae. aegypti [1]): ineffective
- Ae. aegypti Minimum Effective Dosage, M4 (Ae. aegypti [1]; [4]): >0.187 mg/cm^2
- Ae. aegypti Minimum Effective Dosage, M5 (Ae. aegypti [1]; [5]): >0.187 mg/cm^2
- Ae. aegypti Minimum Effective Dosage, M8 (Ae. aegypti [1]; [6]): >0.187 mg/cm^2

SMILES: CC(=O)c1ccc2c(c1O)C=CC(C)(C)O2 [Compound 3]
- An. albimanus Minimum Effective Dosage, M4 (An. albimanus; subject M4): 0.094 mg/cm^2
- An. albimanus Minimum Effective Dosage, M5 (An. albimanus; subject M5): >1.500 mg/cm^2
- An. albimanus Minimum Effective Dosage, M8 (An. albimanus; subject M8): >1.500 mg/cm^2
- An. albimanus Minimum Effective Dosage, M9 (An. albimanus; subject M9): 0.375 mg/cm^2
- An. albimanus Minimum Effective Dosage, M10 (An. albimanus; subject M10): >1.500 mg/cm^2
- mosquito repellent activity against Ae. aegypti (in words) (Ae. aegypti [1]): least repellent
- Ae. aegypti Minimum Effective Dosage, M4 (Ae. aegypti [1]; Table 1 preliminary assay, human subject M4, highest concentration 1.500 mg/cm^2): >1.500 mg/cm^2
- Ae. aegypti Minimum Effective Dosage, M5 (Ae. aegypti [1]; Table 1 preliminary assay, human subject M5, highest concentration 1.500 mg/cm^2): 0.187 mg/cm^2
- Ae. aegypti Minimum Effective Dosage, M8 (Ae. aegypti [1]; Table 1 preliminary assay, human subject M8, highest concentration 1.500 mg/cm^2): >1.500 mg/cm^2
- Ae. aegypti Minimum Effective Dosage, M9 (Ae. aegypti [1]; Table 1 preliminary assay, human subject M9, highest concentration 1.500 mg/cm^2): >1.500 mg/cm^2
- Ae. aegypti Minimum Effective Dosage, M10 (Ae. aegypti [1]; Table 1 preliminary assay, human subject M10, highest concentration 1.500 mg/cm^2): >1.500 mg/cm^2

SMILES: COC(=O)c1c(Cl)ccc2c1C=CC(C)(C)O2 [Compound 16]
- Ae. aegypti Minimum Effective Dosage, F1 (Ae. aegypti [1]; [3]): >1.500 mg/cm^2
- Ae. aegypti Minimum Effective Dosage, M1 (Ae. aegypti [1]; [3]): >1.500 mg/cm^2
- Ae. aegypti Minimum Effective Dosage, M2 (Ae. aegypti [1]; [3]): >1.500 mg/cm^2
